Measurements as given in patent US20250243208A1, “BICYCLIC HETEROCYCLES AS MRGPRX2 ANTAGONISTS” (Incyte Corporation, priority 2024, published 2025).

Columns and labels:
Type in all cases: cell-based
[1] = target: T1, MRGPRX2 (Homo sapiens, UniProt Q96LB1); test: MRGPRX2 β-Arrestin recruitment assay (PathHunter CHO-K1); set-up: host or cells: PathHunter CHO-K1; conditions: PathHunter CHO-K1 cells, agonist Cortistatin 14 0.25 μM
T1 sequence (Q96LB1 1-330): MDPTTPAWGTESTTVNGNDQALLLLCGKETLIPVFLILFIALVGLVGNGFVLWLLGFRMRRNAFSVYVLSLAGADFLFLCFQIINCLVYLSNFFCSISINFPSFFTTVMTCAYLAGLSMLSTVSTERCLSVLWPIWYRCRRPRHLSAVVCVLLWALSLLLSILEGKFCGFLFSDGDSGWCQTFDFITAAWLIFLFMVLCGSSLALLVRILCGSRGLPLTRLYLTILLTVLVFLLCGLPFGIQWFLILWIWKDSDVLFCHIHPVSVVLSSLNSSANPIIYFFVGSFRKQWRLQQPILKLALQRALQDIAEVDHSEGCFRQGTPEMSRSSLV
Excerpt: Example C: MRGPRX2 β-Arrestin Assay
This assay measures compound inhibition of β-Arrestin recruitment, which is part of the G protein-independent pathway that results from the ligand-activated GPCR phosphorylation by specific GPCR kinases. The PathHunter CHO-K1 MRPGRX2 B-Arrestin Cell line stably expressing ProLink tagged MRGPRX2 and Enzyme Acceptor Tagged B-Arrestin was purchased from Eurofins DiscoverX, (Fremont, CA).
The cells were maintained in culture medium from the Europhins DiscoverX Cell Culture Kit-107 which includes FBS, hygromycin B and G418. For the assay, the cells were harvested and were resuspended with Cell Plating Reagent 2 (Eurofins DiscoverX). Cells were added 10000 cells in 25 μL/well to a 384-well black cell culture plate (Greiner VWR, Radnor, PA) which contained 125 nL/well of compound at a selected serially diluted concentration range or DMSO. The plate was incubated at 37° C. with 5% CO2 for 1 h. 2 μL/well of agonist Cortistatin 14 was diluted in Protein Dilution Buffer, (Eurofins DiscoverX) for a final concentration of 0.25 μM, was added and the plate was incubated at 37° C. with 5% CO2 for 90 min. 14 μL/well of Detection Reagent Mix (PathHunter Detection Kit, Eurofins DiscoverX) was added to the plates and further incubated for 1 h in the dark. Plates were read on the PHERAstar microplate reader (BMG Labtech Cary, NC) measuring luminescence 0.1 to 1 s per well. Data was normalized using DMSO only wells and wells with high concentration of reference antagonist as controls. Compound IC50 curves were globally fitted with 3- or 4-parameter Hill equation in a Genedata Screener (Genedata Basel, Switzerland).

[2] = target: T1, MRGPRX2; test: MRGPRX2 FLIPR calcium mobilization assay; set-up: host or cells: CHO-K1; conditions: CHO-K1 cells, agonist Cortistatin-14 at EC80, Ca2+ release
Procedure: Example A. MRGPRX2 FLIPR Calcium Mobilization Assay
Chinese hamster ovary (CHO-K1) cells stably expressing human MRGPRX2 were purchased from Genescript (Piscataway, NJ). The cells were maintained in culture medium (Ham's F-12K) containing 10% (v/v) FBS, 200 μg/mL Zeocin, 100 units/mL penicillin G and 100 μg/mL streptomycin (Life Technologies, Carlsbad, CA). For the assay, the cells were harvested and resuspended with culture medium without Zeocin before plating at 8000 cells per well in 20 μL in 384-well black clear bottom cell culture plates (VWR, Radnor, PA). […] Ca^2+ release was measured with FLIPR Penta with 10 s basal fluorescence measurement, then 12.5 μL of 5× agonist Cortistatin-14 (Tocris, Minneapolis, MN) at final concentration corresponding to the EC80 were added followed with continued fluorescence signal monitoring for an additional 110 s. The base line adjusted (median of first 10s base line) max value of the Relative Fluorescence Unit (RFU) was plotted against compound concentrations. […]

[3] = target: T1, MRGPRX2; test: MRGPRX2 IP1 HTRF assay; set-up: host or cells: CHO-K1; conditions: CHO-K1 cells, agonist Cortistatin 14 1 μM, IP1 accumulation
Excerpt: Example B: MRGPRX2 IP1 HTRF Assay
This assay measures compound inhibition of myo-Inositol 1 phosphate (IP1) accumulation in CHO-K1 cells. Chinese hamster ovary (CHO-K1) cells stably expressing human MRGPRX2 were purchased from GenScript (Piscataway, NJ).
For the HTRF IP1 determination, an IP-One GqKit (Perkin Elmer Cisbio, Waltham, MA), which includes all reagents and buffers in this protocol, was used. The cells were maintained in culture medium (Ham's F-12K) containing 10% (v/v) FBS, and 200 μg/mL Zeocin. For the assay, the cells were harvested and resuspended in culture medium with 2% FBS and without Zeocin, then were passed through a 40 μm filter. Cells were added at 20000 cells in a 5 μL/well to a 384-well white small volume cell culture plate (Greiner VWR, Radnor, PA) which contained 50 nL/well of test compound serially diluted at a selected concentration range in DMSO. 5 μL/well of prepared 2× Stimulation Buffer2 was then added to plates and was incubated at 37° C. with 5% CO2 for 1 h. 5 μL/well of agonist Cortistatin 14 (Bio-TechneR&D Systems, Minneapolis, MN) in 1× Stimulation Buffer 2, for a 1 μM final concentration, was then added to plates and incubated at 37° C. with 5% CO2 for 1 h. 6 μL/well of 1:20 diluted Detection Reagent Mix (d2 and Cryptate) was added to the plates and incubated for 1 h in the dark. Plates were read on the PHERAstar microplate reader (BMG Labtech Cary, NC) to determine the HTRF ratio of the acceptor and donor emission signals. The IP1 concentrations were calculated from a standard curve following the IP-One GQ kit instructions. Wells with DMSO only and wells with high concentration of reference antagonist were used as controls for normalization. Compound IC50 curves were globally fitted with 3- or 4-parameter Hill equation in a Genedata Screener (Genedata Basel, Switzerland).

IC50 [1] [nM]	IC50 [2] [nM]	IC50 [3] [nM]	SMILES
0.1 to 100	0.1 to 100	0.1 to 100	CC(CNc1cc(C(F)(F)F)nc2cc(C(F)(F)F)nn12)(c1ccc(F)cc1)C1CN(/C(N)=N/C#N)C1 (racemic) [Example 14, 3-(1-((2,5-Bis(trifluoromethyl)pyrazolo[1,5-a]pyrimidin-7-yl)amino)-2-(4-fluorophenyl)propan-2-yl)-N′-cyanoazetidine-1-carboximidamide]
0.1 to 100	0.1 to 100	–	CC(CNc1cc(C(F)(F)F)nc2cc(C(F)(F)F)nn12)(c1ccc(F)cc1)C1CNC1 (racemic) [Example 13, N-(2-(Azetidin-3-yl)-2-(4-fluorophenyl)propyl)-2,5-bis(trifluoromethyl)pyrazolo[1,5-a]pyrimidin-7-amine]
